ChEMBL document CHEMBL1147819, “Synthesis of 2-alkoxy-8-hydroxyadenylpeptides: towards synthetic epitope-based vaccines” (Bioorg Med Chem Lett, 2006)
Active and inactive are the calls of the source. The calls are words filed in the database; no cut-off is given here. Residues, ends and D or L forms follow the SMILES beside them. *: point of attachment. X2 = C[C@H](N*)C(=O)N(C(=O)c1cn(CCOCCOCCOc2nc(N)c3nc(O)n(Cc4ccccc4)c3n2)nn1)[C@@H](CCCCN)C(N)=O; X1 = Nc1nc(OCCOCCOCCn2cc(C(=O)*)nn2)nc2c1nc(O)n2Cc1ccccc1

Columns and labels:
Assay type in all cases: functional, cell-based
Details in all cases: Homo sapiens
Dendritic cell [1] = assay: Induction of IL-12p40 in dendritic cells
Dendritic cell [2] = assay: Inhibition of antigen presentation in dendritic cells
Dendritic cell [3] = assay: Induction of antigen presentation in dendritic cells

COCCOc1nc(N)c2[nH]c(=O)n(Cc3ccccc3)c2n1
Activity (Dendritic cell [1]): Active

[N-]=[N+]=NCCOCCOCCOc1nc(N)c2[nH]c(=O)n(Cc3ccccc3)c2n1
Activity (Dendritic cell [1]): Active

CC[C@H](C)[C@H](NC(=O)[C@H](CO)NC(=O)[C@H](CCC(=O)O)NC(=O)[C@H](CC(C)C)NC(=O)[C@H](CCC(N)=O)NC(=O)[C@H](CCC(=O)O)NC(=O)[C@H](CC(C)C)NC(=O)CNC(=O)[C@H](CO)NC(=O)[C@@H](NC(=O)[C@H](CCC(=O)O)NC(=O)[C@@H](N)CC(=O)O)C(C)C)C(=O)N[C@H](C(=O)N[C@@H](CC(N)=O)C(=O)N[C@@H](Cc1ccccc1)C(=O)N[C@@H](CCC(=O)O)C(=O)N[C@@H](CCCCN)C(=O)N[C@@H](CC(C)C)C(=O)N[C@@H](C)C(=O)N[C@@H](C)C(=O)N[C@@H](C)C(=O)N[C@@H](C)C(=O)N[C@@H](C)C(=O)N(C(=O)c1cn(CCOCCOCCOc2nc(N)c3nc(O)n(Cc4ccccc4)c3n2)nn1)[C@@H](CCCCN)C(N)=O)[C@@H](C)CC (H-DEVSGLEQLESIINFEKLAAAA-X2)
Activity (Dendritic cell [2]): Active | Activity (Dendritic cell [3]): Active

CC[C@H](C)[C@H](NC(=O)[C@H](CO)NC(=O)[C@H](CCC(=O)O)NC(=O)[C@H](CC(C)C)NC(=O)[C@H](CCC(N)=O)NC(=O)[C@H](CCC(=O)O)NC(=O)[C@H](CC(C)C)NC(=O)CNC(=O)[C@H](CO)NC(=O)[C@@H](NC(=O)[C@H](CCC(=O)O)NC(=O)[C@H](CC(=O)O)NC(=O)c1cn(CCOCCOCCOc2nc(N)c3nc(O)n(Cc4ccccc4)c3n2)nn1)C(C)C)C(=O)N[C@H](C(=O)N[C@@H](CC(N)=O)C(=O)N[C@@H](Cc1ccccc1)C(=O)N[C@@H](CCC(=O)O)C(=O)N[C@@H](CCCCN)C(=O)N[C@@H](CC(C)C)C(=O)O)[C@@H](C)CC (X1-DEVSGLEQLESIINFEKL-OH)
Activity (Dendritic cell [2]): Active | Activity (Dendritic cell [3]): Active

CC[C@H](C)[C@H](NC(=O)[C@H](CO)NC(=O)[C@H](CCC(=O)O)NC(=O)[C@H](CC(C)C)NC(=O)[C@H](CCC(N)=O)NC(=O)[C@H](CCC(=O)O)NC(=O)[C@H](CC(C)C)NC(=O)CNC(=O)[C@H](CO)NC(=O)[C@@H](NC(=O)[C@H](CCC(=O)O)NC(=O)[C@H](CC(=O)O)NC(=O)c1cn(CCOCCOCCOc2nc(N)c3nc(O)n(Cc4ccccc4)c3n2)nn1)C(C)C)C(=O)N[C@H](C(=O)N[C@@H](CC(N)=O)C(=O)N[C@@H](Cc1ccccc1)C(=O)N[C@@H](CCC(=O)O)C(=O)N[C@@H](CCCCN)C(=O)N[C@@H](CC(C)C)C(=O)N[C@@H](C)C(=O)N[C@@H](C)C(=O)N[C@@H](C)C(=O)N[C@@H](C)C(=O)N[C@@H](C)C(=O)N[C@@H](CCCCN)C(N)=O)[C@@H](C)CC (X1-DEVSGLEQLESIINFEKLAAAAAK-NH2)
Activity (Dendritic cell [2]): Active | Activity (Dendritic cell [3]): Active
